Results as given in US20260284211A1, “DISACCHARIDE LINKER, LINKER-PAYLOAD CONTAINING THE SAME AND GLYCAN CHAIN-REMODELED ANTIBODY-DRUG CONJUGATE, PREPARATION METHOD AND USES THEREOF” (GENEQUANTUM HEALTHCARE (SUZHOU) CO., LTD., priority 2023, published 2026).

How the values were obtained:
Assay type in all cases: cell-based
NCI-N87 tumor cells = test: Inhibition of NCI-N87 tumor cell proliferation (CellTiter-Glo); conditions: Homo sapiens, HER2 high expression cells, 96 hours, cell viability, read-out: IC50, inhibitory effects on NCI-N87 tumor cells
Method: (§1) Tumor cells in the logarithmic phase of growth were collected, and 5000 cells per well were evenly inoculated in each hole of the 96-well plate. After the cell adhesion overnight, the cells were treated with different concentrations of drugs for 96 hours. Cell viability was measured by CellTiter-Glo® luminescence cell viability detection kit, and the percentage of cell viability was calculated.

SK-BR-3 tumor cells = test: Inhibition of SK-BR-3 tumor cell proliferation (CellTiter-Glo); conditions: Homo sapiens, HER2 high expression cells, 96 hours, cell viability, read-out: IC50, inhibitory effects on SK-BR-3 tumor cells
Method: as §1

MDA-MB-468 tumor cells = test: Inhibition of MDA-MB-468 tumor cell proliferation (CellTiter-Glo); conditions: Homo sapiens, HER2-negative cells, 96 hours, cell viability, read-out: IC50, inhibitory effects on MDA-MB-468 tumor cells
Method: as §1

IC50 (NCI-N87 tumor cells): 0.614 nM | IC50 (SK-BR-3 tumor cells): 0.305 nM | IC50 (MDA-MB-468 tumor cells): 0.0933 nM
Compound: C=C1C[C@@H]2CC[C@@]34C[C@H]5O[C@H]6[C@@H](O3)[C@H]3O[C@H](CC[C@@H]3O[C@H]6[C@H]5O4)CC(=O)C[C@@H]3[C@@H](OC)[C@@H](C[C@H](O)CN)O[C@H]3C[C@H]3O[C@@H](CC[C@@H]1O2)C[C@@H](C)C3=C [Eribulin]
